From patent US12070445B2, “System and assay for monitoring production/release of membrane-lytic toxins in bacteria and compounds for modulating same” (priority 2021, dated 2024)
pIC50: −log10 of the molar value. Entries after “also recorded” stand apart in the source; their conditions may differ. Where a SMILES comes first, the peptide text is derived from it. Bridges are numbered along the chain shown (N, C = ends).

Columns and labels:
Assay type in all cases: cell-based
[1] = tested on: WT P. aeruginosa (PAO1-PGSC); assay: Microtiter plate (96-well) vesicle lysis assay with WT P. aeruginosa; details: 10 μM OdDHL and PQS, 1 mM BHL, 200 μM 9
Method: (§1) Compound handling and preparation. OdDHL and BHL (Hodgkinson et al., 2011), S. aureus AIP and peptide derivatives 1-5 (Tal-Gan et al., 2013, Tal-Gan et al., 2016, Vasquez and Blackwell, 2019), and compounds 7-9 (Welsh and Blackwell, 2016a, Boursier et al., 2018, Manson et al., 2020) were synthesized using previously described methods. PQS and compound 6 were purchased from Millipore Sigma and AK Scientific respectively. Compounds were stored dry at −20° C. until needed and then dissolved in DMSO. DMSO stock solutions were prepared at concentrations that varied with compound potency and apparent solubility. Final in-well compound concentrations for 96-well vesicle lysis assays, unless noted otherwise, were: 10 μM for AIP, OdDHL, and PQS; 1 mM for BHL; 100 nM for 1-4; 10 μM for 5; 20 μM for 6; 100 μM for 7 and 8; and 200 μM for 9.
(§2) Production of phospholipid vesicles with encapsulated calcein. Large unilamellar vesicles (LUVs) were produced by adapting a freeze-thaw and vesicle extrusion procedure (Mayer et al., 1986). Briefly, stock solutions of phospholipids (DOPC, DPPC, DPPE, or cholesterol) in chloroform were mixed to the desired lipid compositions (70 mol % DOPC/30 mol % cholesterol for S. aureus vesicles or 68 mol % DPPC, 30 mol % cholesterol, 2 mol % DPPE for P. aeruginosa vesicles), and the chloroform was removed using an N2 stream or rotary evaporation followed by drying for at least one hour under vacuum. Self-quenching solutions of calcein were prepared by combining calcein and PBS or a specially prepared calcein buffer (1 mM EDTA, 10 mM Trisbase, and 100 mM NaCl; pH 8) to a calcein concentration of […]. The resulting solutions were titrated with 10 M aqueous NaOH until all calcein was dissolved and the solution reached pH 7.4 or pH 8 for PBS and the calcein buffer, respectively. The resulting calcein solutions were added to the dried phospholipid films (PBS for S. aureus formulations and the calcein buffer for the P. aeruginosa formulations) for a final lipid concentration of 5 mg/mL. The resulting lipid solutions were vortexed vigorously and briefly sonicated in a bath sonicator to form a turbid vesicle suspension. The vesicle suspensions were then freeze-thawed five times by alternately immersing them into an iPrOH/dry ice bath and a warm water bath (˜60° C.). Vesicles prepared for continuous time-course experiments were passed at least 5 times through a 100 nm polycarbonate filter using a Mini-prep extruder. Vesicles prepared for the high-throughput screen were passed through the filter 3 times. The resulting vesicles were then separated from external, unloaded calcein using a hand-packed Sephadex-G50 size exclusion chromatography column. The concentration of phospholipid in the solution was quantified using ^31P NMR (per the above protocol), and the phospholipid concentration was adjusted to 2 mM for unsaturated lipid solutions and 1 mM for saturated lipid solutions in their respective buffers. The resulting vesicles were characterized by dynamic light scattering and found to have a hydrodynamic diameter of ˜150 nm (FIGS. 3A-3C), which agrees with previous reports describing vesicle production using a similar method (Lapinski et al., 2007).
Microtiter plate vesicle lysis assays. Portions of media (2 or 10 mL) were inoculated with individual bacterial colonies and allowed to shake overnight. […]

WT S. aureus (RN6390b) = assay: Microtiter plate (96-well) vesicle lysis assay with WT S. aureus; details: for calcein leakage with agr inhibitors at equivalent concentration: all compounds at 100 nM, 12 hr
Method: as §1, §2
Microtiter plate vesicle lysis assays. Portions of media (2 or 10 mL) were inoculated with individual bacterial colonies and allowed to shake overnight. From these overnight cultures, subcultures were prepared by diluting the cultures 1:50 (v/v) in fresh BHI for S. aureus or 1:100 (v/v) in fresh LB for P. aeruginosa. An aliquot of each subculture (178 μL) was added to 20 μL of vesicle suspension and 2 μL of compound solution (dissolved in DMSO at 100× working concentration) in a clear-bottomed, black 96-well microtiter plate (Corning 3904). For controls, DMSO (vehicle) or Triton X-100 (1% final concentration) was substituted for compound. […]

S. aureus = S. aureus growth (OD600); details: S. aureus WT and QS mutant with vesicles, 12 hr
Method: Microtiter plate vesicle lysis assays. Portions of media (2 or 10 mL) were inoculated with individual bacterial colonies and allowed to shake overnight. From these overnight cultures, subcultures were prepared by diluting the cultures 1:50 (v/v) in fresh BHI for S. aureus or 1:100 (v/v) in fresh LB for P. aeruginosa. An aliquot of each subculture (178 μL) was added to 20 μL of vesicle suspension and 2 μL of compound solution (dissolved in DMSO at 100× working concentration) in a clear-bottomed, black 96-well microtiter plate (Corning 3904). For controls, DMSO (vehicle) or Triton X-100 (1% final concentration) was substituted for compound. Plate covers were coated with an aqueous solution of 0.05% Triton X-100 and 20% ethanol (Brewster, 2003) to prevent the accumulation of condensation. Plates were incubated in a Biotek Synergy 2 microplate reader running Gen5 1.05 software at 37° C. with shaking at the high-speed setting. Fluorescence (excitation 500 nm, emission 540 nm) and OD600 (absorbance at 600 nm) measurements were recorded every 15 minutes for 12 hours. All experiments were performed in technical triplicate in a single microtiter plate. Biological triplicates were then obtained over three days. GraphPad Prism software (v. 9) was used to generate curves and calculate standard error.
High-throughput screening and follow-up analysis protocols. Test compounds and positive control 1 were delivered in 2.5 nL aliquots of DMSO with an Echo 550 liquid handler (LabCyte Inc.) into black 384-well microtiter plates (Corning). All test compounds were tested at 10 μM; positive control 1 was tested at 250 nM. DMSO was used as a negative control. Overnight cultures (2 mL) of WT S. aureus (RN6390b) were grown at 37° C. with shaking at 200 rpm. These cultures were diluted 1:500 (v/v) in fresh BHI medium, at which point vesicle solutions were added to a final concentration of 1 mM phospholipid (as determined by ^31P NMR analyses). This vesicle-cell mixture was then added to the 384-well microtiter plates with a Multidrop 384 liquid-dispensing robot (Thermo Scientific) for a total volume of 50 μL per well. Plates were incubated statically for ˜24 hr at 37° C., at which point fluorescence (excitation 483, emission 530) and OD600 (absorbance at 600 nm) measurements were made using a CLARIOstarR Plus microtiter plate reader (BMG Labtech) running MARS data analysis software. Scatter plots were generated using the Collaborative Drug Discovery Vault informatics platform. […] Fluorescence (excitation 510, emission 544) and OD600 measurements were acquired with a PerkinElmer EnVision microtiter plate reader running Envision Manager software. […]

agr = agr YFP transcriptional reporter assay (S. aureus AH1677 with pDB59); details: Staphylococcus aureus
Method: Bacterial strains and culture. All bacteria were grown at 37° C. with 200 rpm shaking unless otherwise specified. S. aureus and P. aeruginosa were grown in BHI medium and LB medium, respectively. S. aureus AH1677 (with an agr-YFP reporter plasmid) and P. aeruginosa PAO1-PGSC (with a plasI-LVAgfp reporter plasmid) were used as QS transcriptional reporters and grown with 10 μg/mL chloramphenicol and 300 μg/mL carbenicillin, respectively. All other strains were grown without supplemental antibiotic. S. aureus RN6390b and P. aeruginosa PAO1-PGSC were used as WT strains in vesicle lysis experiments, while S. aureus RN9222 and P. aeruginosa PAO-JG35 were used as QS mutants. RN9222 was grown without antibiotic as it was not used as a reporter strain (i.e., it served only as QS mutant).
High-throughput screening and follow-up analysis protocols. Test compounds and positive control 1 were delivered in 2.5 nL aliquots of DMSO with an Echo 550 liquid handler (LabCyte Inc.) into black 384-well microtiter plates (Corning). All test compounds were tested at 10 μM; positive control 1 was tested at 250 nM. DMSO was used as a negative control. Overnight cultures (2 mL) of WT S. aureus (RN6390b) were grown at 37° C. with shaking at 200 rpm. These cultures were diluted 1:500 (v/v) in fresh BHI medium, at which point vesicle solutions were added to a final concentration of 1 mM phospholipid (as determined by ^31P NMR analyses). This vesicle-cell mixture was then added to the 384-well microtiter plates with a Multidrop 384 liquid-dispensing robot (Thermo Scientific) for a total volume of 50 μL per well. Plates were incubated statically for ˜24 hr at 37° C., at which point fluorescence (excitation 483, emission 530) and OD600 (absorbance at 600 nm) measurements were made using a CLARIOstarR Plus microtiter plate reader (BMG Labtech) running MARS data analysis software. Scatter plots were generated using the Collaborative Drug Discovery Vault informatics platform. The dose-response experiment using the vesicle lysis assay was performed in a 384-well plate in technical duplicate with compound concentrations of 0.1, 0.25, 0.5, 1, 2.5, 5, 10, and 20 μM. Dose-response curves were generated using variable slope (4 parameter) non-linear regression analysis for compound inhibition using GraphPad Prism software (v. 9). Analysis of the QS modulatory activity of the HTS hits and 6 (savirin) was performed using the S. aureus YFP transcriptional reporter strain. HTS hits were purchased directly from Life Chemicals, Inc. DMSO stock solutions (10 mM) of each compound were prepared and stored at −20° C. Serial dilutions (1:3) were prepared from the stock solutions in DMSO, and 2 μL aliquots of the resulting dilutions were added to the wells of black 96-well microtiter plates (Corning). Overnight cultures of the S. aureus reporter strain (2 mL) were grown at 37° C. with shaking at 200 rpm. Cultures were diluted 1:50 (v/v) into fresh BHI medium, and 198 μL of this diluted culture were added to each well containing compound, for a total volume of 200 μL per well. All plates contained a vehicle control consisting of 2 μL of DMSO and 198 μL of culture and a media control consisting of 200 μL BHI. Plates were incubated for ˜24 hours at 37° C. with shaking at 200 rpm. Fluorescence (excitation 510, emission 544) and OD600 measurements were acquired with a PerkinElmer EnVision microtiter plate reader running Envision Manager software. Background fluorescence from BHI control was subtracted from raw fluorescence reads, OD600 corrected, and finally normalized to vehicle control. Dose-response curves and IC50 values were generated using 3-parameter non-linear regression analysis for compound inhibition using GraphPad Prism software (v. 9). All compounds were tested in technical triplicate with at least 3 biological replicates.

Compound	calcein leakage with agr inhibitors at equivalent concentration (WT S. aureus (RN6390b))	pIC50 (agr)	further results
CCCC(=O)N[C@H]1CCOC1=O [BHL, N-butyryl-Lhomoserine lactone]			effect on vesicle lysis / dye leakage (fluorescence over 12 hr) [1]: earlier onset of dye leakage; also recorded: facilitate vesicle lysis
CC[C@H](C)[C@H](N)C(=O)N[C@@H](CC(N)=O)C(=O)N[C@H]1CSC(=O)[C@H](CC(C)C)NC(=O)[C@H](CC(C)C)NC(=O)[C@H](Cc2ccccc2)NC(=O)[C@H](C)NC1=O [Compound 1, AIP III D4A] (H-INCAFLL; thioester 3-C)	completely prevent calcein leakage		effect on vesicle lysis (calcein fluorescence over 12 hr) (WT S. aureus (RN6390b); 100 nM 1, 10 μM 5, 20 μM 6, 10 μM AIP): wholly abrogated vesicle lysis; also recorded: repress vesicle lysis; effect of increasing concentration on onset of calcein leakage (WT S. aureus (RN6390b); 3-fold dilutions starting at 100 nM): increases in the times required for the onset of calcein leakage; impact on cell growth (S. aureus): minimal impact on cell growth
CCCc1cc(C(=O)O)nc2c(-c3ccccc3)c(C)nn12 [Compound 12]		5.59	
Cc1nn2c(C3CC3)cc(C(=O)O)nc2c1-c1ccccc1 [Compound 13]		5.47	
Cc1nn2c(C3CCC3)cc(C(=O)O)nc2c1-c1ccccc1 [Compound 14]		6.01	
CCc1cc(C(=O)O)nc2c(-c3ccccc3)c(C)nn12 [Compound 15]		5.12	
Cc1nn2c(C3CCCC3)cc(C(=O)O)nc2c1-c1ccccc1 [Compound 16]		6.08	
Cc1nn2c(C(C)(C)C)cc(C(=O)O)nc2c1-c1ccccc1 [Compound 17]		6.32	
CCCCCCCCCC(=O)CC(=O)N[C@H]1CCOC1=O [OdDHL, N-(3-oxo-dodecanoyl)-L-homoserine lactone]			effect on vesicle lysis / dye leakage (fluorescence over 12 hr) [1]: no observable influence on levels of fluorescence; also recorded: no observable effect
CCCCCCCc1[nH]c2ccccc2c(=O)c1O [PQS, Pseudomonas quinolone signal]			effect on vesicle lysis / dye leakage (fluorescence over 12 hr) [1]: no observable influence on levels of fluorescence; also recorded: no observable effect
AIP III D4A amide [Compound 2]	delayed response		
tr. AIP III D2A [Compound 3]	completely prevent calcein leakage		
tr. AIP III D2A amide [Compound 4]	delayed response		
